{"source": "patent US6464981B2", "about": "“Therapeutic agent for a cancer and method of screening the same, and health-care auxiliary food” (Orient Cancer Therapy Co., LTD, priority 2000, dated 2002)", "origin": "cited, not measured here", "tested_on": "cancer-carrying mice"}
{"smiles": "CCCCCCCCCCCCCCCCCCCCCCCCCC(=O)N[C@@H](CO[C@H]1O[C@H](CO)[C@H](O)[C@H](O)[C@H]1O)[C@H](O)[C@H](O)CCCCCCCCCCCCCC", "note": "[α-galactosylceramide]", "values": [{"measurement": "activation of NKT cells", "value": "NKT cells are activated"}, {"measurement": "elimination of cancer", "value": "elimination of cancer is not observed"}, {"measurement": "metastasis of the cancer", "value": "metastasis of the cancer is suppressed"}]}
